Consider 5 compounds from US7799809B2, “Carboxamide compounds and their use as calpain inhibitors” (Abbott GmbH & Co. KG, priority 2006, dated 2010).

The structures appear in SMILES notation.

Holding throughout (assay type): biochemical
One test addresses T1, cathepsin S (Homo sapiens, UniProt P25774).
T1 construct: purchased Calbiochem 219343; host or cells: E. coli
Nature of the test: Cathepsin S enzyme inhibition in vitro (kinetic fluorescence assay). The following applies: recombinant human cathepsin S vs calpain I. In a few lines:
(§1)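 Cathepsin B (0.25 nM, human liver) with 100 μM Z-Phe-Arg-AMC; L (1 nM, human liver) with 2 μM Z-Phe-Arg-AMC; S (0.5 nM, recombinant) with 20 μM Z-Val-Val-Arg-AMC. pH 6.0 MES buffer, 2.5 mM L-cysteine, room temperature. Kinetic fluorescence (ex 390/em 460 nm); apparent Ki from IC50 by Cheng-Prusoff.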

Another test addresses T2, cathepsin K (Homo sapiens, UniProt P43235).
T2 construct: purchased Calbiochem 342001; host or cells: E. coli
T2 sequence (P43235 115-329): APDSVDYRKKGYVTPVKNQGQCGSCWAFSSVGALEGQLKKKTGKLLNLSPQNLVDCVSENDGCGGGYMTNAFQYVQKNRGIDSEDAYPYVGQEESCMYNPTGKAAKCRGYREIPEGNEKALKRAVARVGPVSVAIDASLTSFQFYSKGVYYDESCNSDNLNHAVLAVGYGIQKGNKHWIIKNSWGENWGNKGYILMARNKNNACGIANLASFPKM
Nature of the test: Cathepsin K enzyme inhibition in vitro (kinetic fluorescence assay). The following applies: cathepsin K activated from recombinant human procathepsin K vs calpain I.

The target of a further test is T3, cathepsin B (Homo sapiens, UniProt P07858).
T3 construct: cathepsin B—isolated from human liver (Calbiochem #219362); purchased Calbiochem 219362; host or cells: human liver (tissue-derived)
The experiment in a line: Cathepsin B enzyme inhibition in vitro (kinetic fluorescence assay). The following applies: cathepsin B isolated from human liver vs calpain I. In a few lines:
as §1

The next test concerns the target T4, cathepsin L (Homo sapiens, UniProt P07711).
T4 construct: cathepsin L—isolated from human liver (Calbiochem #219402); purchased Calbiochem 219402; host or cells: human liver (tissue-derived)
Nature of the test: Cathepsin L enzyme inhibition in vitro (kinetic fluorescence assay). The following applies: cathepsin L isolated from human liver vs calpain I. A digest of the protocol: as §1

T4 sequence (P07711 114-333): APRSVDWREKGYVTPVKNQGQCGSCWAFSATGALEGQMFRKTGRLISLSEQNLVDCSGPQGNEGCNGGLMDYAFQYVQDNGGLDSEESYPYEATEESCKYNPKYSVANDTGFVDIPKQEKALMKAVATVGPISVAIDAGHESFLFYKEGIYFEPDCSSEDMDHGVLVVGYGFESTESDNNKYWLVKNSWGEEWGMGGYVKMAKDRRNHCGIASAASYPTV
T1 sequence (P25774 115-331): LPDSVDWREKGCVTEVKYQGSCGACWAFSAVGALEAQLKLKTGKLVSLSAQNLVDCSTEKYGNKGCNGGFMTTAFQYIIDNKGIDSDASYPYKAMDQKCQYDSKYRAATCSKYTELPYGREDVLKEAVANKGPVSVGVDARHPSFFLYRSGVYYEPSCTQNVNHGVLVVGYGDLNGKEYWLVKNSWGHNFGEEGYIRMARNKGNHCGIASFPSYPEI

On to `COc1c(C)cc(C)cc1-c1ccn(-c2ncccc2C(=O)NC(Cc2ccccc2)C(=O)C(N)=O)n1` (centres unmarked) [Example 121, N-[3-Amino-2,3-dioxo-1-(phenylmethyl)propyl]-2-{3-[3,5-dimethyl-2-(methyloxy)phenyl]-1H-pyrazol-1-yl}pyridine-3-carboxamide], for which the “Sel cat. S: Ki(cathepsin S)/Ki(calpain) ratio” value at cathepsin S is “++ (++ means a Ki(cathepsin S)/Ki(calpain) ratio of ≧100)”. For the same compound, the “Sel cat. K: Ki(cathepsin K)/Ki(calpain) ratio” value on cathepsin K is “++ (++ means a Ki(cathepsin K)/Ki(calpain) ratio of ≧30)”. Also, the “Sel cat. B: Ki(cathepsin B)/Ki(calpain) ratio” value on cathepsin B is given as “++ (++ means a Ki(cathepsin B)/Ki(calpain) ratio of ≧30)”. Besides, at cathepsin L, the “Sel cat. L: Ki(cathepsin L)/Ki(calpain) ratio” value is on record as “++ (++ means a Ki(cathepsin L)/Ki(calpain) ratio of ≧50)”.

On to `NC(=O)C(=O)C(Cc1ccc(F)cc1)NC(=O)c1cccnc1-n1ccc(-c2ccccc2)n1` (centres unmarked) [Example 123, N-{3-Amino-1-[(4-fluorophenyl)methyl]-2,3-dioxopropyl}-2-(3-phenyl-1H-pyrazol-1-yl)pyridine-3-carboxamide], for which the “Sel cat. S: Ki(cathepsin S)/Ki(calpain) ratio” value on cathepsin S was “++ (++ means a Ki(cathepsin S)/Ki(calpain) ratio of ≧100)”. Moreover, the “Sel cat. K: Ki(cathepsin K)/Ki(calpain) ratio” value at cathepsin K is recorded as “++ (++ means a Ki(cathepsin K)/Ki(calpain) ratio of ≧30)”. For the same compound, at cathepsin B, the “Sel cat. B: Ki(cathepsin B)/Ki(calpain) ratio” value is reported as “++ (++ means a Ki(cathepsin B)/Ki(calpain) ratio of ≧30)”. In addition, the “Sel cat. L: Ki(cathepsin L)/Ki(calpain) ratio” value at cathepsin L was “++ (++ means a Ki(cathepsin L)/Ki(calpain) ratio of ≧50)”.

As for `NC(=O)C(=O)C(Cc1ccccc1)NC(=O)c1cccnc1-n1ccc(-c2ccccc2OC(F)(F)F)n1` (centres unmarked) [Example 124, N-[3-Amino-2,3-dioxo-1-(phenylmethyl)propyl]-2-(3-{2-[(trifluoromethyl)oxy]phenyl}-1H-pyrazol-1-yl)pyridine-3-carboxamide], the “Sel cat. S: Ki(cathepsin S)/Ki(calpain) ratio” value at cathepsin S is reported as “++ (++ means a Ki(cathepsin S)/Ki(calpain) ratio of ≧100)”. At cathepsin K, the “Sel cat. K: Ki(cathepsin K)/Ki(calpain) ratio” value is “++ (++ means a Ki(cathepsin K)/Ki(calpain) ratio of ≧30)”. Moreover, the “Sel cat. B: Ki(cathepsin B)/Ki(calpain) ratio” value at cathepsin B is on record as “++ (++ means a Ki(cathepsin B)/Ki(calpain) ratio of ≧30)”. Moreover, on cathepsin L, the “Sel cat. L: Ki(cathepsin L)/Ki(calpain) ratio” value was “++ (++ means a Ki(cathepsin L)/Ki(calpain) ratio of ≧50)”.

In the case of `COc1cc(F)ccc1-c1ccn(-c2ncccc2C(=O)NC(Cc2ccccc2)C(=O)C(N)=O)n1` (centres unmarked) [Example 125, N-[3-Amino-2,3-dioxo-1-(phenylmethyl)propyl]-2-{3-[4-fluoro-2-(methyloxy)phenyl]-1H-pyrazol-1-yl}pyridine-3-carboxamide], on cathepsin S, the “Sel cat. S: Ki(cathepsin S)/Ki(calpain) ratio” value is listed as “++ (++ means a Ki(cathepsin S)/Ki(calpain) ratio of ≧100)”. Besides, the “Sel cat. K: Ki(cathepsin K)/Ki(calpain) ratio” value on cathepsin K is recorded as “++ (++ means a Ki(cathepsin K)/Ki(calpain) ratio of ≧30)”. Also, the “Sel cat. B: Ki(cathepsin B)/Ki(calpain) ratio” value at cathepsin B is reported as “++ (++ means a Ki(cathepsin B)/Ki(calpain) ratio of ≧30)”. For the same compound, the “Sel cat. L: Ki(cathepsin L)/Ki(calpain) ratio” value on cathepsin L is on record as “++ (++ means a Ki(cathepsin L)/Ki(calpain) ratio of ≧50)”.

For the compound `NC(=O)C(=O)C(Cc1ccc(OCc2ccccc2)cc1)NC(=O)c1cccnc1-n1ccc(-c2ccccc2)n1` (centres unmarked) [Example 127, N-[3-Amino-2,3-dioxo-1-({4-[(phenylmethyl)oxy]phenyl}methyl)propyl]-2-(3-phenyl-1H-pyrazol-1-yl)pyridine-3-carboxamide], on cathepsin S, the “Sel cat. S: Ki(cathepsin S)/Ki(calpain) ratio” value was “++ (++ means a Ki(cathepsin S)/Ki(calpain) ratio of ≧100)”. Further, the “Sel cat. K: Ki(cathepsin K)/Ki(calpain) ratio” value on cathepsin K is “++ (++ means a Ki(cathepsin K)/Ki(calpain) ratio of ≧30)”. For the same compound, the “Sel cat. B: Ki(cathepsin B)/Ki(calpain) ratio” value at cathepsin B was “++ (++ means a Ki(cathepsin B)/Ki(calpain) ratio of ≧30)”. Moreover, the “Sel cat. L: Ki(cathepsin L)/Ki(calpain) ratio” value on cathepsin L is “++ (++ means a Ki(cathepsin L)/Ki(calpain) ratio of ≧50)”.
